Assay [1] has as its target T1, A. baumannii PBP2 (Acinetobacter baumannii, UniProt D0C8Z9).
T1 construct: made in house
T1 sequence (D0C8Z9 1-672): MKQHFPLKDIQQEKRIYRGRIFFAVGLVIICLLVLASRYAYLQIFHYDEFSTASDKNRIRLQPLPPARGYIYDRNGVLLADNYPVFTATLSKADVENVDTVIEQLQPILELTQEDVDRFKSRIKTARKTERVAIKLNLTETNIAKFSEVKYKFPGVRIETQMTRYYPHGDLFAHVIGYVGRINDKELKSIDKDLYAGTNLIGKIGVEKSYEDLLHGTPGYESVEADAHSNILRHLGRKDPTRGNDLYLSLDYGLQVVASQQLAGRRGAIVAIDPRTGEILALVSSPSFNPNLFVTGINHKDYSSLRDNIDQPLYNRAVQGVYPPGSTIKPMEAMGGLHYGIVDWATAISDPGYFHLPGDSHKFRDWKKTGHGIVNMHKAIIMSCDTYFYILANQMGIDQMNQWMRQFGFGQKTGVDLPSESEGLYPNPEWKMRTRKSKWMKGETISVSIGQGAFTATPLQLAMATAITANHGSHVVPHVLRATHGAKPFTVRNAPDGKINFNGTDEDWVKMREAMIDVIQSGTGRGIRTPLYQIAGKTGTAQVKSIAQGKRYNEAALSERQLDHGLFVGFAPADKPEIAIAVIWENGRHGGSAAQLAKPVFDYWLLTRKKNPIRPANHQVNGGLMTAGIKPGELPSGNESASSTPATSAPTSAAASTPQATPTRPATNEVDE
Nature of the assay: Bocillin-FL fluorescence polarization competition binding assay, A. baumannii PBP2. The note with it: fluorescence polarization competition binding assay using Bocillin-FL; read-out: A. baumannii PBP2 Potency. The source says: (§1) Example I: Experimental Method for Penicillin-Binding Protein Binding Assays with Bocillin-FL Via Fluorescence Polarization
(§2) To determine the ability of boronic acid-based test PBP inhibitors to bind Penicillin Binding Proteins (PBPs), Bocillin-FL (fluorescently-labeled penicillin V; ThermoFisher Scientific) was used in a fluorescence polarization (FP) competition binding assay to assess inhibitor binding to PBP2, PBP3 or PBP4 from Escherichia coli (K12), PBP3 from Pseudomonas aeruginosa (PA01), PBP1a, PBP2 and PBP3 from Acinetobacter baumannii (ATCC 19606), and PBP2 from Neiserria gonorrheae (FA19). PBPs were cloned and purified as described previously (E. coli PBPs, King, D. T, et al., ACS Infectious Diseases 2015, 1, 175-184; P. aeruginosa PBP3, Han et. al., PNAS 2010, 107 (51), 22002-22007; A. baumannii PBPs, Penwell et. al., Antimicrob. Agents Chemother. 2015, 59 (3), 1680-1689; N. gonorrhoeae PBP2, Singh et. al., J Biol. Chem. 2019, 294 (38), 14020-14032). To establish assay conditions for competition binding, enzyme titration/saturation binding experiments were initially performed. Bocillin-FL was prepared at 0.2 μM in a buffer comprised of 50 mM Hepes (pH 8.0), 300 mM NaCl and 5% (v/v) glycerol for reactions with E. coli, P. aeruginosa and N. gonorrhoeae PBPs, and 25 mM Tris (pH 8.0), 200 mM NaCl and 10% (v/v) glycerol and 0.005% (v/v) Tween 20 for reactions with A. baumannii PBPs. Saturation binding was performed by mixing 40 μl of PBP solutions ranging in concentrations from 0-24 μM with 40 μl of the 0.2 μM Bocillin-FL solution, in individual wells of a black 384-well microplate. FP was measured immediately upon mixing (Excitation, 490 nm; Emission, 520 nm; g-factor, 0.96), using a Cytation3 (BioTek) microplate reader and measured continuously for up to 120 minutes. […] The competition binding assay (80 μl final volume) was validated using beta-lactams and PBPs at final concentrations of: 1.5 μM, E. coli PBP3; 0.75 μM, P. aeruginosa PBP3; 1 μM A. baumannii PBP1a; 2.5 μM A. baumannii PBP2; 0.2 μM A. baumannii PBP3; and […] N. gonorrhoeae PBP2. Bocillin-FL was at 0.1 μM (0.05 μM with A. baumannii PBP1a) and beta-lactam concentrations ranged from 0-1000 μM. […] Bocillin-FL was added and the FP immediately measured for up to 60 minutes (90 minutes for E. coli PBP2). […] The beta-lactam potency was reported as the concentration of beta-lactam required to reduce the amount of PBP bound-Bocillin-FL by 50% (EC50). […] Binding assays for boronic acid PBP inhibitors were performed in an identical fashion for the respective PBPs
A general note: In fluorescence polarisation assays a small probe gives low polarisation when free and higher when bound to something large.

Assay [2] concerns the target A. baumannii PBP1a (Acinetobacter baumannii, UniProt A0ABX6CK30). Nature of the assay: Bocillin-FL fluorescence polarization competition binding assay, A. baumannii PBP1a. The note with it: fluorescence polarization competition binding assay using Bocillin-FL; column 1; read-out: A. baumannii PBP1a Potency.
From the text: as §1, §2

The target of assay [3] is T2, N. gonorrhoeae PBP2 (Neisseria gonorrhoeae, UniProt P08149).
T2 construct: made in house
T2 sequence (P08149 whole entry): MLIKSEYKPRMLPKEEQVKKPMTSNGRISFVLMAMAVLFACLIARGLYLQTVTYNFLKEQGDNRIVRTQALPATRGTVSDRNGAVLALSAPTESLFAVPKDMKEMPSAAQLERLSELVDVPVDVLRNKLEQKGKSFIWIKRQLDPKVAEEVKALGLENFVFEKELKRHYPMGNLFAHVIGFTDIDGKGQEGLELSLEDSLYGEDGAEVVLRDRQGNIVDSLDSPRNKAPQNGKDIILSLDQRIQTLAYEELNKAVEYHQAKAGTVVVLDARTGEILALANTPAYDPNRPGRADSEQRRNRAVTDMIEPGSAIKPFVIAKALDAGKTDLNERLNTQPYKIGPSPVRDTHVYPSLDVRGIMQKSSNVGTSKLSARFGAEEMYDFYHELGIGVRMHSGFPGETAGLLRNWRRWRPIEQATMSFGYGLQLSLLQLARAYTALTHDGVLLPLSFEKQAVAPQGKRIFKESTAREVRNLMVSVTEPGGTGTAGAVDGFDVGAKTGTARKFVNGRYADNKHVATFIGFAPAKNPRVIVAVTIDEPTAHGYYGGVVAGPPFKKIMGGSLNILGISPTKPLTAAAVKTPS
The assay can be described thus: Bocillin-FL fluorescence polarization competition binding assay, N. gonorrhoeae PBP2. The note with it: fluorescence polarization competition binding assay using Bocillin-FL; read-out: N. gonorrhoeae PBP2 Potency.
From the text: as §1, §2

A. baumannii PBP1a, sequence (A0ABX6CK30 entry or part of it): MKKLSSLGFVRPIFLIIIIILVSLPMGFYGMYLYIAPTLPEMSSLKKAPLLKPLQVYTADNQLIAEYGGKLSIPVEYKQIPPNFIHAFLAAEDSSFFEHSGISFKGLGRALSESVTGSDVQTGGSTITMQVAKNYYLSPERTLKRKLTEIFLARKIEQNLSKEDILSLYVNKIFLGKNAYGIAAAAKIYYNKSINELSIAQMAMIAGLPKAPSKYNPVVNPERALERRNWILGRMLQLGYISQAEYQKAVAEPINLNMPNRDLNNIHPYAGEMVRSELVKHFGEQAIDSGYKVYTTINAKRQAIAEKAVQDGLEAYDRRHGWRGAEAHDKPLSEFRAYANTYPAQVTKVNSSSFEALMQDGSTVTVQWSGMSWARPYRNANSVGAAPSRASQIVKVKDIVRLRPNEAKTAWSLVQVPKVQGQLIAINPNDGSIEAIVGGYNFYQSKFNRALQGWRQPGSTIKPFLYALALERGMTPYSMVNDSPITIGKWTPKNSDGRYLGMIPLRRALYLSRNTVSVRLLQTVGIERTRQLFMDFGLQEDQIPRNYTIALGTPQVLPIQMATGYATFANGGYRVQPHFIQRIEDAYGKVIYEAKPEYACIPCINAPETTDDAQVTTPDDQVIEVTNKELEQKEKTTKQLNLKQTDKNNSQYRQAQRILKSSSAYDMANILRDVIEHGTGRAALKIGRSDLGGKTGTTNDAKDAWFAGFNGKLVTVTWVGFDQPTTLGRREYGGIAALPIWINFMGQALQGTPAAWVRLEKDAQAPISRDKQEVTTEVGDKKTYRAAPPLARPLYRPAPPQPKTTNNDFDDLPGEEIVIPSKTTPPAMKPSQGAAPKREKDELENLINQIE

Regarding `NCCN1CCN(C(=O)N[C@@H](C(=O)N[C@H]2Cc3ccc(F)c(C(=O)O)c3OB2O)c2c(F)cc(O)c(O)c2Cl)C(=O)C1=O` (single isomer, unassigned) [Example 26], the EC50 in assay [1] and in assay [2] was more than 100 µM in each case.

Consider `NCCCN1CCN(C(=O)N[C@@H](C(=O)N[C@H]2Cc3ccc(F)c(C(=O)O)c3OB2O)c2c(F)cc(O)c(O)c2Cl)C(=O)C1=O` (single isomer, unassigned) [Example 27], for which the EC50 in assay [1] and in assay [2] was more than 100 µM each time.

As for `O=C(O)c1c(F)ccc2c1OB(O)[C@@H](NC(=O)[C@H](NC(=O)N1CCNC1=O)c1c(F)cc(O)c(O)c1Cl)C2` (single isomer, unassigned) [Example 34], the results for the EC50 in assay [1] and in assay [2] were 30 to 100 µM and more than 100 µM, respectively.

`NCCN1CCN(C(=O)N[C@@H](C(=O)N[C@H]2Cc3ccc(F)c(C(=O)O)c3OB2O)c2c(F)cc(O)c(O)c2F)C(=O)C1=O` (single isomer, unassigned) [Example 40]: the figures for the EC50 in assay [1] and in assay [2] were 30 to 100 µM and more than 100 µM, respectively.

Turning to `CCN1CCN(C(=O)N[C@@H](C(=O)N[C@H]2Cc3cccc(C(=O)O)c3OB2O)c2cc(O)cc(O)c2)C(=O)C1=O` (single isomer, unassigned) [Example 82], the EC50 in assay [3] is less than 10 µM.

For `NCCN1CCN(C(=O)N[C@H](C(=O)N[C@H]2Cc3cccc(C(=O)O)c3OB2O)c2ccc(C(=O)O)cc2)C(=O)C1=O` (single isomer, unassigned) [Example 83], in assay [3], the EC50 was less than 10 µM.

Turning to `NCCN1CCN(C(=O)N[C@@H](C(=O)N[C@H]2Cc3cccc(C(=O)O)c3OB2O)c2ccc(C(=O)O)cc2)C(=O)C1=O` (single isomer, unassigned) [Example 84], the EC50 in assay [3] is less than 10 µM.

Turning to `NCCN1CCN(C(=O)N[C@H](C(=O)N[C@H]2Cc3cccc(C(=O)O)c3OB2O)c2ccc(O)cc2Cl)C(=O)C1=O` (single isomer, unassigned) [Example 85], the EC50 in assay [3] is 10 to 30 µM.

For the compound `CCN1CCN(C(=O)N[C@@H](C(=O)N[C@H]2Cc3cccc(C(=O)O)c3OB2O)c2cc(Cl)c(O)cc2Cl)C(=O)C1=O` (single isomer, unassigned) [Example 91], the EC50 in assay [3] is less than 10 µM.

Take `CCN1CCN(C(=O)N[C@H](C(=O)N[C@H]2Cc3cccc(C(=O)O)c3OB2O)c2cc(Cl)c(O)cc2Cl)C(=O)C1=O` (single isomer, unassigned) [Example 92]: the EC50 in assay [3] was less than 10 µM.

Regarding `CS(=O)(=O)N1CCN(C(=O)NC(C(=O)N[C@H]2Cc3ccc(F)c(C(=O)O)c3OB2O)c2ccc(O)c(O)c2Cl)C1=O` (stereo partly drawn) [Example 23, (3R)-3-(2-(2-chloro-3,4-dihydroxyphenyl)-2-(3-(methylsulfonyl)-2-oxoimidazolidine-1-carboxamido)acetamido)-7-fluoro-2-hydroxy-3,4-dihydro-2H-benzo[e][1,2]oxaborinine-8-carboxylic acid], the EC50 in assay [1] and in assay [2] was more than 100 µM in each case.

`CCN1CCN(C(=O)NC(C(=O)N[C@H]2Cc3cccc(C(=O)O)c3OB2O)c2ccc(C(=O)O)c(F)c2)C(=O)C1=O` (stereo partly drawn) [Example 31, (3R)-3-(2-(4-carboxy-3-fluorophenyl)-2-(4-ethyl-2,3-dioxopiperazine-1-carboxamido)acetamido)-2-hydroxy-3,4-dihydro-2H-benzo[e][1,2]oxaborinine-8-carboxylic acid]: the EC50 in assay [3] is less than 10 µM.

`CCN1CCN(C(=O)NC(C(=O)N[C@H]2Cc3cccc(C(=O)O)c3OB2O)c2ccc(C(N)=O)c(O)c2)C(=O)C1=O` (stereo partly drawn) [Example 45, (3R)-3-(2-(4-carbamoyl-3-hydroxyphenyl)-2-(4-ethyl-2,3-dioxopiperazine-1-carboxamido)acetamido)-2-hydroxy-3,4-dihydro-2H-benzo[e][1,2]oxaborinine-8-carboxylic acid]: in assay [3], the EC50 was less than 10 µM.

For the compound `CCN1CCN(C(=O)NC(C(=O)N[C@H]2Cc3cccc(C(=O)O)c3OB2O)c2cccc(O)c2)C(=O)C1=O` (stereo partly drawn) [Example 68, (3R)-3-(2-(4-ethyl-2,3-dioxopiperazine-1-carboxamido)-2-(3-hydroxyphenyl)acetamido)-2-hydroxy-3,4-dihydro-2H-benzo[e][1,2]oxaborinine-8-carboxylic acid], in assay [3], the EC50 is less than 10 µM.

As for `CCN1CCN(C(=O)NC(C(=O)N[C@H]2Cc3cccc(C(=O)O)c3OB2O)c2cccc(N)c2)C(=O)C1=O` (stereo partly drawn) [Example 72, (3R)-3-(2-(3-aminophenyl)-2-(4-ethyl-2,3-dioxopiperazine-1-carboxamido)acetamido)-2-hydroxy-3,4-dihydro-2H-benzo[e][1,2]oxaborinine-8-carboxylic acid], in assay [3], the EC50 is less than 10 µM.

In the case of `CCN1CCN(C(=O)NC(C(=O)N[C@H]2Cc3cccc(C(=O)O)c3OB2O)c2ccc(O)c(NC(=O)c3ccc(O)c(O)c3Cl)c2)C(=O)C1=O` (stereo partly drawn) [Example 74, (3R)-3-(2-(3-(2-chloro-3,4-dihydroxybenzamido)-4-hydroxyphenyl)-2-(4-ethyl-2,3-dioxopiperazine-1-carboxamido)acetamido)-2-hydroxy-3,4-dihydro-2H-benzo[e][1,2]oxaborinine-8-carboxylic acid], the EC50 in assay [1] was more than 100 µM; in assay [2], 30 to 100 µM.

With `NCCN1CCN(C(=O)NC(C(=O)N[C@H]2Cc3cccc(C(=O)O)c3OB2O)c2c(F)cc(O)cc2Cl)C(=O)C1=O` (stereo partly drawn) [Example 94, (3R)-3-(2-(4-(2-aminoethyl)-2,3-dioxopiperazine-1-carboxamido)-2-(2-chloro-6-fluoro-4-hydroxyphenyl)acetamido)-2-hydroxy-3,4-dihydro-2H-benzo[e][1,2]oxaborinine-8-carboxylic acid], the EC50 in assay [3] was less than 10 µM.

Regarding `CCN1CCN(C(=O)NC(C(=O)N[C@H]2Cc3cccc(C(=O)O)c3OB2O)c2c(F)cc(O)cc2Cl)C(=O)C1=O` (stereo partly drawn) [Example 95, (3R)-3-(2-(2-chloro-6-fluoro-4-hydroxyphenyl)-2-(4-ethyl-2,3-dioxopiperazine-1-carboxamido)acetamido)-2-hydroxy-3,4-dihydro-2H-benzo[e][1,2]oxaborinine-8-carboxylic acid], the EC50 in assay [3] is less than 10 µM.

The record behind these values is patent US20230114728A1 (Venatorx Pharmaceuticals, Inc., priority 2019, published 2023).
